Measurements published in ChEMBL document CHEMBL1649397, “Synthesis of a-factor peptide from Saccharomyces cerevisiae and photoactive analogues via Fmoc solid phase methodology” (Bioorg Med Chem, 2011).
Activity calls are given as the source filed them. No cut-off for these calls is given here. Where a SMILES comes first, the peptide text is derived from it. The star is where a group is joined. X3 = C/C(=C/C*)CC/C=C(\C)COCc1cccc(C(=O)c2ccccc2)c1; X2 = C/C(=C/C*)COCc1cccc(C(=O)c2ccccc2)c1; X1 = CC(C)=CCC/C(C)=C/CC/C(C)=C\C*

Tests used:
Type in all cases: functional, organism-based
[1] = tested on: Saccharomyces cerevisiae; test: Growth arrest against Saccharomyces cerevisiae RC757 assessed as zone of inhibition at 0.50 ng after overnight incubation
[2] = tested on: Saccharomyces cerevisiae; test: Growth arrest against Saccharomyces cerevisiae LM102 assessed as zone of inhibition after overnight incubation
[3] = tested on: Saccharomyces cerevisiae; test: Growth arrest against Saccharomyces cerevisiae RC757 assessed as zone of inhibition after overnight incubation
[4] = tested on: Saccharomyces cerevisiae; test: Growth arrest against Saccharomyces cerevisiae RC757 assessed as zone of inhibition at 0.25 ng after overnight incubation

## CC[C@H](C)[C@H](NC(=O)[C@@H](NC(=O)[C@@H](N)Cc1ccc(O)cc1)[C@@H](C)CC)C(=O)N[C@@H](CCCCN)C(=O)NCC(=O)N[C@H](C(=O)N[C@@H](Cc1ccccc1)C(=O)N[C@@H](Cc1c[nH]c2ccccc12)C(=O)N[C@@H](CC(=O)O)C(=O)N1CCC[C@H]1C(=O)N[C@@H](C)C(=O)N[C@@H](CSC/C=C(/C)CC/C=C(\C)COCc1cccc(C(=O)c2ccccc2)c1)C(=O)OC)C(C)C (H-YIIKGVFWDPAC(X3)-OMe)
[1]
  inhibition zone (IZ): Active

## CC[C@H](C)[C@H](NC(=O)[C@@H](NC(=O)[C@@H](N)Cc1ccc(O)cc1)[C@@H](C)CC)C(=O)N[C@@H](CCCCN)C(=O)NCC(=O)N[C@H](C(=O)N[C@@H](Cc1ccccc1)C(=O)N[C@@H](Cc1c[nH]c2ccccc12)C(=O)N[C@@H](CC(=O)O)C(=O)N1CCC[C@H]1C(=O)N[C@@H](C)C(=O)N[C@@H](CSC/C=C(/C)CC/C=C(\C)CCC=C(C)C)C(=O)OC)C(C)C (H-YIIKGVFWDPAC(X1)-OMe)
[2]
  inhibition zone (IZ): inactive
[3]
  inhibition zone (IZ): Active

## CC[C@H](C)[C@H](NC(=O)[C@@H](NC(=O)[C@@H](N)Cc1ccc(O)cc1)[C@@H](C)CC)C(=O)N[C@@H](CCCCN)C(=O)NCC(=O)N[C@H](C(=O)N[C@@H](Cc1ccccc1)C(=O)N[C@@H](Cc1c[nH]c2ccccc12)C(=O)N[C@@H](CC(=O)O)C(=O)N1CCC[C@H]1C(=O)N[C@@H](C)C(=O)N[C@@H](CSC/C=C(/C)COCc1cccc(C(=O)c2ccccc2)c1)C(=O)OC)C(C)C (H-YIIKGVFWDPAC(X2)-OMe)
[4]
  inhibition zone (IZ): Active
